In the CheMixHub viscosity set:
Where “and” joins values, the source holds several entries; their conditions need not be identical. Equal values may be shown once.

Assay: xn = mol fraction of the nth substance listed

CC(C)=O + CN(C)C=O
298.15 K, 101 kPa
Conditions | viscosity [mPa·s]
x2 = 0.0367 | 0.32
x2 = 0.09776 | 0.343
x2 = 0.136 | 0.369
x2 = 0.2182 | 0.378
x2 = 0.394 | 0.457
x2 = 0.4912 | 0.499
x2 = 0.6429 | 0.565
x2 = 0.8008 | 0.646

CCCc1ccccc1 + C1COCCO1
303.15 K, 101.3 kPa
Conditions | viscosity [mPa·s]
x2 = 0.1061 | 0.7763
x2 = 0.1984 | 0.8007
x2 = 0.2968 | 0.8298
x2 = 0.399 | 0.8589
x2 = 0.4945 | 0.8922
x2 = 0.5985 | 0.9278
x2 = 0.7003 | 0.9648
x2 = 0.8026 | 1.005
x2 = 0.9025 | 1.045

O=[N+]([O-])[O-].O=[N+]([O-])[O-].O=[N+]([O-])[O-].[Ce+3] + O
viscosity [mPa·s], 101.3 kPa
Conditions | x1 = 0.009125 | x1 = 0.01824 | x1 = 0.02724 | x1 = 0.03472 | x1 = 0.05339 | x1 = 0.06671 | x1 = 0.0744
293.15 K | 1.312 | 1.718 | 2.423 | 3.281 | 6.899 | 13.02 | 19.48
298.15 K | 1.174 | 1.529 | 2.169 | 2.911 | 5.937 | 10.99 | 16.06
308.15 K | 0.9509 | 1.249 | 1.734 | 2.299 | 4.599 | 8.055 | 11.34

CC[N+](CC)(CC)CC.Cc1ccc(S(=O)(=O)[O-])cc1 + OCCOCCOCCOCCO
101 kPa, x1 = 0.2
Conditions | viscosity [mPa·s]
298.15 K | 74.7
303.15 K | 57.8
308.15 K | 45.9
313.15 K | 36.9
318.15 K | 30.2
323.15 K | 25

C1CCOC1 + CCCO
viscosity [mPa·s], 101 kPa
Conditions | 298.15 K | 303 K | 313 K
x1 = 0.0992 | – | 1.22 | 1.04
x1 = 0.1999 | – | 1.08 | 0.9
x1 = 0.2846 | – | 1 | 0.85
x1 = 0.39 | – | 0.91 | 0.77
x1 = 0.5 | 0.7603 | – | –
x1 = 0.5146 | – | 0.8 | 0.69
x1 = 0.5918 | – | 0.73 | 0.65
x1 = 0.7012 | – | 0.64 | 0.57
x1 = 0.8028 | – | 0.57 | 0.51
x1 = 0.894 | – | 0.5 | 0.47
x1 = 0.9761 | – | 0.44 | 0.42

CC(C)=O + CCO
298.15 K, 101 kPa
Conditions | viscosity [mPa·s]
x1 = 0.1868 | 0.7168
x1 = 0.2337 | 0.651
x1 = 0.3003 | 0.5795
x1 = 0.3162 | 0.5636
x1 = 0.378 | 0.5162
x1 = 0.3887 | 0.5028
x1 = 0.4579 | 0.462
x1 = 0.6529 | 0.3836

CC(C)=O + CCCCCC
298.15 K, 101 kPa
Conditions | viscosity [mPa·s]
x1 = 0.1416 | 0.303
x1 = 0.2707 | 0.3137
x1 = 0.3888 | 0.3047
x1 = 0.4974 | 0.2983
x1 = 0.5975 | 0.3043
x1 = 0.6901 | 0.3039
x1 = 0.776 | 0.2984
x1 = 0.8559 | 0.3113
x1 = 0.9304 | 0.3144

CC(C)=O + OCCO
293.15 K, 101.33 kPa
Conditions | viscosity [mPa·s]
x2 = 0.1258 | 0.439
x2 = 0.2405 | 0.625
x2 = 0.2517 | 0.651
x2 = 0.3451 | 0.912
x2 = 0.3891 | 1.086
x2 = 0.5257 | 1.91
x2 = 0.6291 | 3.034
x2 = 0.6515 | 3.393
x2 = 0.7734 | 6.123
x2 = 0.8254 | 7.897
x2 = 0.8715 | 9.97
x2 = 0.921 | 13.18

Brc1ccc2[n-]cnc2c1.CCCCCCCCCCCCCC[P+](CCCCCC)(CCCCCC)CCCCCC + COCCOCCOCCOCCOC
viscosity [mPa·s], 100 kPa
Conditions | 293.15 K | 298.15 K | 303.15 K | 308.15 K | 313.15 K | 318.15 K | 323.15 K
x1 = 0.362 | 62 | – | – | – | – | – | –
x1 = 0.522 | 164 | 125 | 98 | 77 | 63 | 51 | –
x1 = 0.654 | 301 | 222 | 167 | 129 | 101 | 81 | 66
x1 = 0.782 | 631 | 449 | 326 | 243 | 185 | 143 | 114
x1 = 0.862 | 972 | 675 | 481 | 351 | 261 | 199 | 155
x1 = 0.898 | 1190 | 813 | 572 | 413 | 304 | 230 | 177

Cc1ccccc1 + CCO
Conditions | viscosity [mPa·s]
293.2 K, 101.32 kPa, x2 = 0.05 | 0.568
293.2 K, 101.32 kPa, x2 = 0.136 | 0.587
293.2 K, 101.32 kPa, x2 = 0.28 | 0.616
293.2 K, 101.32 kPa, x2 = 0.55 | 0.731
293.2 K, 101.32 kPa, x2 = 0.735 | 0.861
303 K, 101 kPa, x1 = 0.1006 | 0.821
303 K, 101 kPa, x1 = 0.2012 | 0.786
303 K, 101 kPa, x1 = 0.3009 | 0.724
303 K, 101 kPa, x1 = 0.3981 | 0.686
303 K, 101 kPa, x1 = 0.5016 | 0.643
303 K, 101 kPa, x1 = 0.6052 | 0.613
303 K, 101 kPa, x1 = 0.7001 | 0.602
303 K, 101 kPa, x1 = 0.8095 | 0.569
303 K, 101 kPa, x1 = 0.9011 | 0.551
303 K, 101.33 kPa, x2 = 0.3333 | 0.574
303 K, 101.33 kPa, x2 = 0.5714 | 0.651
303 K, 101.33 kPa, x2 = 0.75 | 0.774
303 K, 101.33 kPa, x2 = 0.8889 | 0.927
303.15 K, 101.33 kPa, x1 = 0.0692 | 0.893
303.15 K, 101.33 kPa, x1 = 0.1849 | 0.803
303.15 K, 101.33 kPa, x1 = 0.3191 | 0.699
303.15 K, 101.33 kPa, x1 = 0.5285 | 0.596
303.15 K, 101.33 kPa, x1 = 0.5858 | 0.575
303.15 K, 101.33 kPa, x1 = 0.6901 | 0.546
303.15 K, 101.33 kPa, x1 = 0.7906 | 0.527
303.15 K, 101.33 kPa, x1 = 0.8565 | 0.519
303.15 K, 101.33 kPa, x1 = 0.9213 | 0.524
308.15 K, 101.33 kPa, x1 = 0.0692 | 0.814
308.15 K, 101.33 kPa, x1 = 0.1849 | 0.736
308.15 K, 101.33 kPa, x1 = 0.3191 | 0.642
308.15 K, 101.33 kPa, x1 = 0.5285 | 0.552
308.15 K, 101.33 kPa, x1 = 0.5858 | 0.533
308.15 K, 101.33 kPa, x1 = 0.6901 | 0.507
308.15 K, 101.33 kPa, x1 = 0.7906 | 0.491
308.15 K, 101.33 kPa, x1 = 0.8565 | 0.486
308.15 K, 101.33 kPa, x1 = 0.9213 | 0.493
313 K, 101.33 kPa, x2 = 0.3333 | 0.504
313 K, 101.33 kPa, x2 = 0.5714 | 0.557
313 K, 101.33 kPa, x2 = 0.75 | 0.654
313 K, 101.33 kPa, x2 = 0.8889 | 0.778
323 K, 101.33 kPa, x2 = 0.3333 | 0.446
323 K, 101.33 kPa, x2 = 0.5714 | 0.479
323 K, 101.33 kPa, x2 = 0.75 | 0.557
323 K, 101.33 kPa, x2 = 0.8889 | 0.648

CC[N+](CC)(CC)CC.Cc1ccc(S(=O)(=O)[O-])cc1 + CC(O)CO
101 kPa, x1 = 0.2
Conditions | viscosity [mPa·s]
298.15 K | 66.9
303.15 K | 51.2
308.15 K | 39.8
313.15 K | 31.6
318.15 K | 25.5
323.15 K | 20.9

c1ccc2ccccc2c1 + CCCCCC
viscosity
Conditions | 298.15 K | 303.15 K | 308.15 K | 313.15 K | 318.15 K
101 kPa, x1 = 0.09526 | 0.3806 mPa·s | 0.3636 mPa·s | 0.3455 mPa·s | 0.331 mPa·s | 0.3166 mPa·s
101 kPa, x1 = 0.1771 | – | 0.4135 mPa·s | 0.3922 mPa·s | 0.3737 mPa·s | 0.3567 mPa·s
101.33 kPa, x1 = 0.09526 | 0.3806 mPa·s | 0.3636 mPa·s and 0.3636 mPa·s | 0.3455 mPa·s | 0.331 mPa·s | 0.3166 mPa·s and 0.3166 mPa·s
101.33 kPa, x1 = 0.1185 | – | 0.3813 mPa·s | – | – | 0.3268 mPa·s
101.33 kPa, x1 = 0.1464 | – | 0.3926 mPa·s | – | – | 0.3406 mPa·s
101.33 kPa, x1 = 0.1771 | – | 0.4135 mPa·s | – | – | 0.3567 mPa·s
101.33 kPa, x1 = 0.18 | – | 0.4135 mPa·s | 0.3922 mPa·s | 0.3737 mPa·s | 0.3567 mPa·s
101.33 kPa, x1 = 0.2165 | – | – | – | – | 0.3785 mPa·s
